Experiments:
[1] = tested on: A375; assay: A375_P-ERK / A375 cell activity; type: cell-based; conditions: Homo sapiens, A-375; A375 cells (A375_P-ERK)
Method: (§1) Compounds are assessed in a variety of cell based assays. For example human cell lines with B-Raf V600E mutation (A375 melanoma, SKMEL3 melanoma, and COLO205 colon adenocarcinoma), as well as tumorigenic cell lines with wild-type B-RAF (SW620 colon adenocarcinoma) or with Ras mutations (SKMEL2 melanoma and IPC298 melanoma). Similar assays may be used to assess additional tumorigenic cell lines with Ras mutations, including, but not limited to, M202, M207, M243, M244, M296, S117, HCT116, HCT15, DLD1, MiaPaCa, A549, NCI-H23, NCI-H460, HOP62, MDA-MB231, Hs-578T, HL60, MOLT-4, and CCRF-CEM.
(§2) On day 1, cells are counted, then centrifuged in a conical tube for 5 minutes at 1000 rpm. The supernatant is removed and cells are re-suspended as follows: • SW620 (ATCC catalog #CCL-27): resuspend in Leibovitz's L-15 medium, 2 mM L-glutamine, 10% fetal bovine serum to 6×10^4 cells/mL. • A375 (ATCC catalog #CRL-1619): resuspend in Dulbecco's modified Eagle's medium, 4 mM L-glutamine, 4.5 g/L D-glucose, 10% fetal bovine serum to 6×10^4 cells/mL. • COLO205 (ATCC catalog #CCL-222): resuspend in RPMI 1640, 2 mM L-glutamine, 1.5 g/L sodium bicarbonate, 4.5 g/L D-glucose, 10 mM HEPES, 1.0 mM sodium pyruvate, 10% fetal bovine serum to 6×10^4 cells/mL. • SKMEL2 (ATCC catalog #HTB-68): resuspend in Minimum Eagle essential medium, 2 mM L-glutamine, 1.5 g/L sodium bicarbonate, 0.1 mM non-essential amino acids, 1.0 mM sodium pyruvate, 10% fetal bovine serum to 6×10^4 cells/mL. • SKMEL3 (ATCC catalog #HTB-69): resuspend in McCoy's 5A medium, 1.5 mM L-glutamine, 15% fetal bovine serum to 6×10^4 cells/mL. • IPC298 (DSMZ catalog #ACC 251): resuspend in RPMI 1640, 2 mM L-glutamine, 10% fetal bovine serum to 6×10^4 cells/mL.
(§3) The cells are plated, 50 μL in each well of a 96-well dish (Corning 3610) and incubated at 37° C. in 5% CO2 overnight, cells plated to a final concentration of cells as follows: • SW620: 5,000 cells per well. • A375: 2,000 cells per well. • COLO205: 2,000 cells per well. • SKMEL2: 2,000 cells per well. • SKMEL3: 3,000 cells per well. • IPC298: 2,000 cells per well.
(§4) On day 2, compound at a maximum concentration of 5 mM is serially diluted 1:3 (e.g. 10 μL with 30 μL dimethyl sulfoxide) for a total of 8 point titration with DMSO as a control. A 1 μL aliquot of each dilution point and control is added to 249 μL growth media and 50 μL is added to a well containing cells, providing 10 μM compound at the maximum concentration point. The cells are incubated for 3 days at 37° C. in 5% CO2.
(§5) On day 5, ATPlite 1 step Luminescence Assay System (Perkin Elmer #6016739) is brought to room temperature along with the cell cultures. ATPlite is added 25 μL to each well, shake for 2 minutes, and the cells are incubated at room temperature for 10 minutes, then luminescence is read on Satire reader. The measured luminescence correlates directly with cell number, such that the reading as a function of compound concentration is used to determine the IC50 value.

[2] = tested on: COLO205; assay: COLO205 cell growth inhibitory activity (ATPlite); type: cell-based; conditions: Homo sapiens, COLO 205, 72 h; COLO205 cells, growth inhibition, 3 days
Method: as §1, §2, §3, §4, §5

Compound	IC50 [1] [µM]	IC50 [2] [µM]
CN(C)S(=O)(=O)Nc1cccc(C(=O)c2c[nH]c3ncc(-c4ccc(C(C)(C)O)cc4)cc23)c1F [Compound P-0103, 3-[3-(dimethylsulfamoylamino)-2-fluoro-benzoyl]-5-[4-(1-hydroxy-1-methyl-ethyl)phenyl]-1H-pyrrolo[2,3-b]pyridine]	< 1	< 1
CC(C)(O)c1ccc(-c2cnc3[nH]cc(C(=O)c4cccc(NS(=O)(=O)N5CCCC5)c4F)c3c2)cc1 [Compound P-0105, N-[2-fluoro-3-[5-[4-(1-hydroxy-1-methyl-ethyl)phenyl]-1H-pyrrolo[2,3-b]pyridine-3-carbonyl]phenyl]pyrrolidine-1-sulfonamide]	< 1	< 1
CCN(C)S(=O)(=O)Nc1cccc(C(=O)c2c[nH]c3ncc(-c4cnc(N5CCCC5)nc4)cc23)c1F [Compound P-0108, 3-[3-[[ethyl(methyl)sulfamoyl]amino]-2-fluoro-benzoyl]-5-(2-pyrrolidin-1-ylpyrimidin-5-yl)-1H-pyrrolo[2,3-b]pyridine]	< 1	> 1
O=C(c1cccc(NS(=O)(=O)N2CCCC2)c1F)c1c[nH]c2ncc(-c3cnc(NC4CC4)nc3)cc12 [Compound P-0232, N-[3-[5-[2-(cyclopropylamino)pyrimidin-5-yl]-1H-pyrrolo[2,3-b]pyridine-3-carbonyl]-2-fluoro-phenyl]pyrrolidine-1-sulfonamide]	< 1	< 1
CCOc1cnc(-c2cnc3[nH]cc(C(=O)c4c(F)ccc(NS(=O)(=O)N(C)C)c4F)c3c2)cn1 [Compound P-0244, 3-[3-(dimethylsulfamoylamino)-2,6-difluoro-benzoyl]-5-(5-ethoxypyrazin-2-yl)-1H-pyrrolo[2,3-b]pyridine]	> 1	> 1
CN(C)S(=O)(=O)Nc1cccc(C(=O)c2c[nH]c3ncc(-c4ccc(C(C)(C)C#N)cc4)cc23)c1F [Compound P-0245, 5-[4-(1-cyano-1-methyl-ethyl)phenyl]-3-[3-(dimethylsulfamoylamino)-2-fluoro-benzoyl]-1H-pyrrolo[2,3-b]pyridine]	< 1	< 1
COC(=O)C1(c2ccc(-c3cnc4[nH]cc(C(=O)c5cccc(NS(=O)(=O)N6CCCC6)c5F)c4c3)cc2)CC1 [Compound P-0254, methyl 1-[4-[3-[2-fluoro-3-(pyrrolidin-1-ylsulfonylamino)benzoyl]-1H-pyrrolo[2,3-b]pyridin-5-yl]phenyl]cyclopropanecarboxylate]	< 1	< 1
CN(C)S(=O)(=O)Nc1ccc(F)c(C(=O)c2c[nH]c3ncc(-c4ccc(C(C)(C)C#N)cc4)cc23)c1F [Compound P-0255]	< 1	< 1
CCN(C)S(=O)(=O)Nc1ccc(F)c(C(=O)c2c[nH]c3ncc(-c4cnc(N5CCN(C(=O)OC(C)(C)C)CC5)nc4)cc23)c1F [Compound P-0264, tert-butyl 4-[5-[3-[3-[[ethyl(methyl)sulfamoyl]amino]-2,6-difluoro-benzoyl]-1H-pyrrolo[2,3-b]pyridin-5-yl]pyrimidin-2-yl]piperazine-1-carboxylate]	< 1	< 1
O=C(c1c(F)ccc(NS(=O)(=O)N2CCCC2)c1F)c1c[nH]c2ncc(-c3cnc(N4CCOCC4)nc3)cc12 [Compound P-0266, N-[2,4-difluoro-3-[5-(2-morpholinopyrimidin-5-yl)-1H-pyrrolo[2,3-b]pyridine-3-carbonyl]phenyl]pyrrolidine-1-sulfonamide]	< 1	< 1
COc1ncc(-c2cnc3[nH]cc(C(=O)c4c(F)ccc(NS(=O)(=O)N5CCCC5)c4F)c3c2)s1 [Compound P-0270, N-[2,4-difluoro-3-[5-(2-methoxythiazol-5-yl)-1H-pyrrolo[2,3-b]pyridine-3-carbonyl]phenyl]pyrrolidine-1-sulfonamide]	< 1	< 1
O=C(c1c(F)ccc(NS(=O)(=O)N2CCCC2)c1F)c1c[nH]c2ncc(-c3ccnc(OC4CCC4)c3)cc12 [Compound P-0286, N-[3-[5-[2-(cyclobutoxy)-4-pyridyl]-1H-pyrrolo[2,3-b]pyridine-3-carbonyl]-2,4-difluoro-phenyl]pyrrolidine-1-sulfonamide]	> 1	< 1
O=C(c1c(F)ccc(NS(=O)(=O)N2CCC(F)(F)C2)c1F)c1c[nH]c2ncc(-c3cnc(C4CC4)nc3)cc12 [Compound P-0288, N-[3-[5-(2-cyclopropylpyrimidin-5-yl)-1H-pyrrolo[2,3-b]pyridine-3-carbonyl]-2,4-difluoro-phenyl]-3,3-difluoro-pyrrolidine-1-sulfonamide]	< 1	< 1
O=C(c1c(F)ccc(NS(=O)(=O)N2CCCC2)c1F)c1c[nH]c2ncc(-c3cc(C(F)(F)F)ncn3)cc12 [Compound P-0294, N-[2,4-difluoro-3-[5-[6-(trifluoromethyl)pyrimidin-4-yl]-1H-pyrrolo[2,3-b]pyridine-3-carbonyl]phenyl]pyrrolidine-1-sulfonamide]	> 1	> 1
CCN(C)S(=O)(=O)Nc1ccc(F)c(C(=O)c2c[nH]c3ncc(-c4ccc(C#N)cc4)cc23)c1F [Compound P-0300, 5-(4-cyanophenyl)-3-[3-[[ethyl(methyl)sulfamoyl]amino]-2,6-difluoro-benzoyl]-1H-pyrrolo[2,3-b]pyridine]	< 1	> 1
CCN(C)S(=O)(=O)Nc1ccc(F)c(C(=O)c2c[nH]c3ncc(-c4cccc(N(C)C)c4)cc23)c1F [Compound P-0302, 5-[3-(dimethylamino)phenyl]-3-[3-[[ethyl(methyl)sulfamoyl]amino]-2,6-difluoro-benzoyl]-1H-pyrrolo[2,3-b]pyridine]	< 1	< 1
CCN(C)S(=O)(=O)Nc1ccc(F)c(C(=O)c2c[nH]c3ncc(-c4ccc(C(=O)NC5CC5)nc4)cc23)c1F [Compound P-0312, N-cyclopropyl-5-[3-[3-[[ethyl(methyl)sulfamoyl]amino]-2,6-difluoro-benzoyl]-1H-pyrrolo[2,3-b]pyridin-5-yl]pyridine-2-carboxamide]	< 1	< 1
CN1CCN(c2cc(-c3cnc4[nH]cc(C(=O)c5c(F)ccc(NS(=O)(=O)N6CCCC6)c5F)c4c3)ncn2)CC1 [Compound P-0319, N-[2,4-difluoro-3-[5-[6-(4-methylpiperazin-1-yl)pyrimidin-4-yl]-1H-pyrrolo[2,3-b]pyridine-3-carbonyl]phenyl]pyrrolidine-1-sulfonamide]	< 1	< 1

From patent publication US9624213B2 (Plexxikon Inc., priority 2011, dated 2017)
